{
  "source": "paper PMC5854701",
  "about": "(Scientific Reports, 2018)",
  "key": {"[1]": {"tested_on": "multiple strains of influenza A and B viruses", "experiment": "microbe, parasite or virus in culture", "assay_type": "cell-based"}, "[2]": {"experiment": "in vitro", "conditions": "dog"}, "[3]": {"tested_on": "influenza B virus B/Wisconsin/1/2010 (Yamagata)", "experiment": "in vitro", "conditions": "dog, MDCK"}, "[4]": {"tested_on": "influenza B virus B/Brisbane/60/2008 (Victoria)", "experiment": "in vitro", "conditions": "dog, MDCK"}, "[5]": {"tested_on": "A/WSN/33 (H1N1)"}, "[6]": {"experiment": "in vitro", "conditions": "human"}, "[7]": {"tested_on": "A/Texas/04/2009 (H1N1)"}, "[8]": {"tested_on": "A/California/07/2009 (H1N1)"}, "[9]": {"tested_on": "B/Wisconsin/1/2010 (Yamagata)"}, "[10]": {"tested_on": "B/Memphis/20/1996 (Yamagata)"}, "[11]": {"tested_on": "influenza B virus B/Phuket/3073/2013 (Yamagata)", "experiment": "in vitro", "conditions": "dog, MDCK"}, "[12]": {"tested_on": "A/Switzerland/9715293/2013 (H3N2)"}, "[13]": {"tested_on": "A/Washington/29/2009 (H1N1)"}, "[14]": {"tested_on": "A/WSN/33 (H1N1)", "remark": "listed apart in the source"}, "[15]": {"tested_on": "B/Phuket/3073/2013 (Yamagata)"}, "[16]": {"tested_on": "influenza B virus B/Memphis/20/1996 (Yamagata)", "experiment": "in vitro", "conditions": "dog, MDCK"}, "[17]": {"tested_on": "B/Brisbane/60/2008 (Victoria)"}, "[18]": {"tested_on": "influenza B virus B/Utah/09/2014 (Yamagata)", "experiment": "in vitro", "conditions": "dog, MDCK"}, "[19]": {"tested_on": "A/Denmark/524/2009 (H1N1)"}, "[20]": {"tested_on": "B/Utah/09/2014 (Yamagata)"}, "[21]": {"tested_on": "A/Denmark/528/2009 (H1N1)"}},
  "data": [
    {"compound": "O=c1[nH]c2ccccc2n1C1CCN(C(CCc2ccccc2)c2nnnn2-c2ccc3c(c2)OCCO3)CC1", "note": "(stereo not drawn) [Compound 5, 1‐(1‐{1‐[1‐(2,3‐dihydro‐1,4‐benzodioxin‐6‐yl)‐1,2,3,4‐tetrazol‐5‐yl]‐3‐phenylpropyl}piperidin‐4‐ yl)‐3 H‐1,3‐benzodiazol‐2‐one]", "values": [
      {"measurement": "EC50 values against panel of influenza A and B viruses", "setting": "[1]", "value": "single to submicromolar"},
      {"measurement": "CC50", "setting": "[2]", "value": "17.4 ± 1.2", "unit": "µM"},
      {"measurement": "selectivity ratio", "setting": "[3]", "value": 19.3},
      {"measurement": "selectivity ratio", "setting": "[4]", "value": 17.4},
      {"measurement": "% plaque formation at 5 µM", "setting": "[5]", "value": "16.5 ± 1.2", "unit": "%"}
    ]},
    {"compound": "O=c1[nH]c2ccccc2n1C1CCN(C(c2ccc(-c3ccccc3)cc2)c2nnnn2-c2ccc3c(c2)OCCO3)CC1", "note": "(stereo not drawn) [Compound 9 f, 1‐[1‐({[1,1′‐biphenyl]‐4‐yl}[1‐(2,3‐dihydro‐1,4‐benzodioxin‐6‐yl)‐1 H‐1,2,3,4‐tetrazol‐5‐yl]methyl)piperidin‐4‐yl]‐2,3‐dihydro‐1 H‐1,3‐benzodiazol‐2‐one]", "values": [
      {"measurement": "antiviral activity in plaque assay (in words)", "setting": "[5]", "value": "not active"}
    ]},
    {"compound": "CCc1ccc(C(c2nnnn2-c2ccc3c(c2)OCCO3)N2CCC(n3c(=O)[nH]c4ccccc43)CC2)cc1", "note": "(stereo not drawn) [Compound 9 g, 1‐(1‐{[1‐(2,3‐dihydro‐1,4‐benzodioxin‐6‐yl)‐1 H‐1,2,3,4‐tetrazol‐5‐yl](4‐ethylphenyl)methyl}piperidin‐4‐yl)‐2,3‐dihydro‐1 H‐1,3‐benzodiazol‐2‐one]", "values": [
      {"measurement": "antiviral activity in plaque assay (in words)", "setting": "[5]", "value": "moderate antiviral activity"}
    ]},
    {"compound": "O=c1[nH]c2ccccc2n1C1CCN(C(c2ccncc2)c2nnnn2-c2ccc3c(c2)OCCO3)CC1", "note": "(stereo not drawn) [Compound 9 h, 1‐(1‐{[1‐(2,3‐dihydro-1,4-benzodioxin-6-yl)-1 H-1,2,3,4-tetrazol-5-yl](pyridin-4-yl)methyl}piperidin-4-yl)-2,3-dihydro-1 H-1,3-benzodiazol-2-one]", "values": [
      {"measurement": "antiviral activity in plaque assay (in words)", "setting": "[5]", "value": "moderate antiviral activity"}
    ]},
    {"compound": "O=c1[nH]c2ccccc2n1C1CCN(C(c2ccccc2OC(F)(F)F)c2nnnn2Cc2ccccc2)CC1", "note": "(stereo not drawn) [Compound 9 u, 1‐{1‐[(1‐benzyl‐1 H‐1,2,3,4‐tetrazol‐5‐yl)[2‐(trifluoromethoxy)phenyl]methyl]piperidin‐4‐yl}‐2,3‐dihydro‐1 H‐1,3‐benzodiazol‐2‐one]", "values": [
      {"measurement": "% plaque formation at 5 µM", "setting": "[5]", "value": "22.7 ± 2.2", "unit": "%"}
    ]},
    {"compound": "CCC(c1nnnn1-c1ccc2c(c1)OCCO2)N1CCC(n2c(=O)[nH]c3ccccc32)CC1", "note": "(stereo not drawn) [Compound 9d, 1‐(1‐{1‐[1‐(2,3‐dihydro‐1,4‐benzodioxin‐6‐yl)‐1 H‐1,2,3,4‐tetrazol‐5‐yl]propyl}piperidin‐4‐yl)‐2,3‐dihydro‐1 H‐1,3‐benzodiazol‐2‐one]", "values": [
      {"measurement": "antiviral activity in plaque assay (in words)", "setting": "[5]", "value": "moderate antiviral activity"}
    ]},
    {"compound": "O=c1[nH]c2ccccc2n1C1CCN(C(Cc2ccccc2)c2nnnn2-c2ccc3c(c2)OCCO3)CC1", "note": "(stereo not drawn) [Compound 9e, 1‐(1‐{1‐[1‐(2,3‐dihydro‐1,4‐benzodioxin‐6‐yl)‐1 H‐1,2,3,4‐tetrazol‐5‐yl]‐2‐phenylethyl}piperidin‐4‐yl)‐2,3‐dihydro‐1 H‐1,3‐benzodiazol‐2‐one]", "values": [
      {"measurement": "antiviral activity in plaque assay (in words)", "setting": "[5]", "value": "moderate antiviral activity"}
    ]},
    {"compound": "CC(C)c1ccc(C(c2nnnn2-c2ccc3c(c2)OCCO3)N2CCC(n3c(=O)[nH]c4ccccc43)CC2)cc1", "note": "(stereo not drawn) [Compound 9j, 1‐(1‐{[1‐(2,3‐dihydro‐1,4‐benzodioxin‐6‐yl)‐1 H‐1,2,3,4‐tetrazol‐5‐yl][4‐(propan‐2‐yl)phenyl]methyl}piperidin‐4‐yl)‐2,3‐dihydro‐1 H‐1,3‐benzodiazol‐2‐one]", "values": [
      {"measurement": "antiviral activity in plaque assay (in words)", "setting": "[5]", "value": "not active"}
    ]},
    {"compound": "O=c1[nH]c2ccccc2n1C1CCN(C(c2ccsc2)c2nnnn2Cc2ccccc2)CC1", "note": "(stereo not drawn) [Compound 9p, 1‐{1‐[(1‐benzyl‐1 H‐1,2,3,4‐tetrazol‐5‐yl)(thiophen‐3‐yl)methyl]piperidin‐4‐yl}‐2,3‐dihydro‐1 H‐1,3‐benzodiazol‐2‐one]", "values": [
      {"measurement": "% plaque formation at 5 µM", "setting": "[5]", "value": "12.3 ± 2.1", "unit": "%"}
    ]},
    {"compound": "C[C@@H](c1ccccc1)n1nnnc1[C@H](c1ccsc1)N1CCC(n2c(=O)[nH]c3ccccc32)CC1", "note": "[Compound 12a, 1‐{1‐[(S)‐{1‐[(1 S)‐1‐phenylethyl]‐1 H‐1,2,3,4‐tetrazol‐5‐yl}(thiophen‐3‐yl)methyl]piperidin‐4‐yl}‐2,3‐dihydro‐1 H‐1,3‐benzodiazol‐2‐one]", "values": [
      {"measurement": "CC50", "setting": "[6]", "value": "98.1 ± 2.5", "unit": "µM"},
      {"measurement": "EC50", "setting": "[1]; […], read-out: EC50 values against panel of influenza A and B viruses", "value": "0.6 to 2.7", "unit": "µM"},
      {"measurement": "CC50", "setting": "[2]", "value": "> 150", "unit": "µM"},
      {"measurement": "SI (selectivity index), A549", "setting": "[7]", "value": ">136.4/89.2"},
      {"measurement": "SI (selectivity index), A549", "setting": "[8]", "value": ">115.4/75.5"},
      {"measurement": "selectivity ratio", "setting": "[3]", "value": "> 188"},
      {"measurement": "SI (selectivity index), A549", "setting": "[9]", "value": ">187.5/122.6"},
      {"measurement": "SI (selectivity index), A549", "setting": "[10]", "value": ">55.6/36.3"},
      {"measurement": "selectivity ratio", "setting": "[11]", "value": "> 125"},
      {"measurement": "SI (selectivity index), A549", "setting": "[12]", "value": ">107.1/70.1"},
      {"measurement": "SI (selectivity index), A549", "setting": "[13]", "value": ">166.7/109.0"},
      {"measurement": "selectivity ratio", "setting": "[4]", "value": "> 250"},
      {"measurement": "effect of pre-treatment of cells on viral replication", "setting": "[14]", "value": "little to no effect on viral replication"},
      {"measurement": "efficacy when added at later stages of viral replication", "setting": "[14]", "value": "gradually decreased"},
      {"measurement": "SI (selectivity index), A549", "setting": "[5]", "value": ">214.3/140.1"},
      {"measurement": "SI (selectivity index), A549", "setting": "[15]", "value": ">125/81.8"},
      {"measurement": "selectivity ratio", "setting": "[16]", "value": "> 55.6"},
      {"measurement": "SI (selectivity index), A549", "setting": "[17]", "value": ">250/163.5"},
      {"measurement": "selectivity ratio", "setting": "[18]", "value": "> 100"},
      {"measurement": "SI (selectivity index), A549", "setting": "[19]", "value": ">187.5/122.6"},
      {"measurement": "SI (selectivity index), A549", "setting": "[20]", "value": ">100/65.4"},
      {"measurement": "SI (selectivity index), A549", "setting": "[21]", "value": ">166.7/109.0"}
    ]},
    {"compound": "C[C@@H](c1ccccc1)n1nnnc1[C@@H](c1ccsc1)N1CCC(n2c(=O)[nH]c3ccccc32)CC1", "note": "[Compound 12b, 1‐{1‐[(R)‐{1‐[(1 S)‐1‐phenylethyl]‐1 H‐1,2,3,4‐tetrazol‐5‐yl}(thiophen‐3‐yl)methyl]piperidin‐4‐yl}‐2,3‐dihydro‐1 H‐1,3‐benzodiazol‐2‐one]", "values": [
      {"measurement": "antiviral activity in plaque assay (in words)", "setting": "[5]", "value": "not active"}
    ]},
    {"compound": "Cc1onc(-c2ccccc2)c1C(=O)N1CCN(c2ccc([N+](=O)[O-])cc2Cl)CC1", "note": "[Nucleozin, reference compound]", "values": [
      {"measurement": "% plaque formation", "setting": "[5]", "value": 0, "unit": "%"}
    ]},
    {"compound": "Oseltamivir carboxylate [reference compound]", "values": [
      {"measurement": "antiviral activity when added 8 h post viral infection", "setting": "[14]", "value": "retained potent antiviral activity"},
      {"measurement": "% plaque formation", "setting": "[5]", "value": "11.1 ± 2.1", "unit": "%"}
    ]}
  ]
}
